Consider seven compounds from ChEMBL document CHEMBL1135020, “5-Bromo (or chloro)-6-azido-5,6-dihydro-2' -deoxyuridine and -thymidine derivatives with potent antiviral activity” (Bioorg Med Chem Lett, 2002).

The source made the active and inactive calls. The calls are words filed in the database; no cut-off is given here.

By IC50 is commonly meant the point on the concentration scale where inhibition reaches its midpoint. A low value points to greater potency in that assay. Usually EC50 stands for the concentration needed to bring the measured effect to its halfway point. As a reminder, the GI50 is the concentration giving 50% growth inhibition. Low readings indicate more potent growth inhibition, high ones less potent growth inhibition.

Assay [1] concerns CCRF-CEM. Nature of the assay: Inhibitory concentration for spectrum antiviral activity against herpes viruses. It counts as functional, cell-based. To be noted: Homo sapiens.
The test system of assay [2] is CCRF-CEM. In words: In vitro anti-HIV screen using HIV-1 infected CD4 lymphocytes (CEM cell line), determines cytotoxicity. It counts as functional, cell-based. To be noted: Homo sapiens.
For a further assay, the system named is Human alphaherpesvirus 2. Nature of the assay: In vitro antiviral activity against Herpes simplex virus (HSV-2) was determined. It counts as functional, organism-based.
Another assay has as its system Human gammaherpesvirus 4. In words: In vitro antiviral activity against Epstein Barr virus (EBV) was determined. It counts as functional, organism-based.
The test system of the next assay is Human betaherpesvirus 5. In words: In vitro antiviral activity against Human cytomegalovirus (HCMV) was determined. Format: functional, organism-based.
A further assay relates to Human alphaherpesvirus 1. In words: In vitro antiviral activity against Herpes simplex virus (HSV-1) was determined. It counts as functional, organism-based.
The next assay deals with Tumor Cell line. Nature of the assay: Test was to evaluate selectivity against individual tumor cell lines; NS= No selectivity. Format: functional, cell-based. To be noted: Homo sapiens.
Assay [3] has as its system Malme-3M. Nature of the assay: Test was to evaluate selectivity against individual tumor cell lines Melanoma (MALME-3M). It counts as functional. As to conditions: Homo sapiens.
For assay [4], the system named is SK-MEL-5. In words: Test was to evaluate selectivity against individual tumor cell lines Melanoma (SK-MEL-5). Format: functional. As to conditions: Homo sapiens.
Another assay relates to Human alphaherpesvirus 3. In words: In vitro antiviral activity against Varicella zoster virus (VZV) was determined. It counts as functional, organism-based.
Another assay concerns CAKI-1. In words: Test was to evaluate selectivity against individual tumor cell lines Renal cancer (CAKI-1). As to conditions: Homo sapiens. Format: functional.
The subject of another assay is DMS-114. Nature of the assay: Test was to evaluate selectivity against individual tumor cell lines Small cell lung cancer (DMS114). It counts as functional. As to conditions: Homo sapiens.
For assay [5], the system named is M19-MEL. Nature of the assay: Test was to evaluate selectivity against individual tumor cell lines Melanoma (M19-MEL). To be noted: Homo sapiens. Format: functional.
Assay [6] has as its system CCRF-CEM. In words: Test was to evaluate selectivity against individual tumor cell line Leukemia (CCRF-CEM). Format: functional. To be noted: Homo sapiens.
The next assay relates to RPMI-8226. In words: Test was to evaluate selectivity against individual tumor cell line Leukemia (RPMI-8226). Format: functional. As to conditions: Homo sapiens.
Assay [7] deals with SK-MEL-5. Nature of the assay: est was to evaluate selectivity against individual tumor cell line Melanoma (SK-MEL-5). It counts as functional. As to conditions: Homo sapiens.
A further assay has as its system NCI-H522. In words: Test was to evaluate selectivity against individual tumor cell line Non small cell lung cancer (NCI-H522). Format: functional. As to conditions: Homo sapiens.
Assay [8] deals with M19-MEL. Nature of the assay: est was to evaluate selectivity against individual tumor cell line Melanoma (M19-MEL). It counts as functional. To be noted: Homo sapiens.
Another assay deals with SF-268. In words: Test was to evaluate selectivity against individual tumor cell line CNS cancer (SF-268). To be noted: Homo sapiens. It counts as functional.
The subject of assay [9] is Malme-3M. In words: est was to evaluate selectivity against individual tumor cell line Melanoma (MALME-3M). Format: functional. As to conditions: Homo sapiens.

Take `CC1(Cl)C(=O)NC(=O)N([C@H]2C[C@H](O)[C@@H](CO)O2)C1N=[N+]=[N-]` (some centres undefined): the IC50 in the assay with CCRF-CEM [1] was found to be 135 µM; in the assay with CCRF-CEM [2] it was 113 µM. Moreover, the EC50 with Human alphaherpesvirus 2 was above 313 µM; in the assay with Human gammaherpesvirus 4, above 12.5 µM; in the assay with Human betaherpesvirus 5, above 50 µM; with Human alphaherpesvirus 1 it was above 313 µM. Also, the result in the assay with Tumor Cell line was inactive.
In turn, `Nc1nc2c(ncn2COCCO)c(=O)[nH]1` [ACYCLOVIR] showed an IC50 in the assay with CCRF-CEM [2] above 440 µM. Besides, the EC50 in the assay with Human alphaherpesvirus 2 worked out at 6.16 µM; with Human gammaherpesvirus 4, 3.96 µM; in the assay with Human alphaherpesvirus 1, 3.08 µM.
Consider `[N-]=[N+]=NC1C(Br)C(=O)NC(=O)N1[C@H]1C[C@H](O)[C@@H](CO)O1` (some centres undefined), for which the GI50 with Malme-3M [3] was 15.5 µM; in the assay on SK-MEL-5 [4] it was 42.2 µM; in the assay on CAKI-1, 66.3 µM; in the assay with DMS-114 it was 90.9 µM; in the assay on M19-MEL [5], 91.5 µM; in the assay on CCRF-CEM [6], 38 µM. In addition, the GI50 in the assay on RPMI-8226 came out at 19.6 µM. Also, the figures for the IC50 in the assay with CCRF-CEM [1] and with CCRF-CEM [2] were 7.4 µM and 127 µM, respectively. In addition, the EC50 in the assay with Human alphaherpesvirus 3 turned out to be 91.4 µM; with Human alphaherpesvirus 2, 3.42 µM; in the assay on Human gammaherpesvirus 4, 46 µM; in the assay with Human betaherpesvirus 5, 11.4 µM; in the assay on Human alphaherpesvirus 1 it was 8.28 µM.
In turn, `O=c1[nH]c(=O)n([C@H]2C[C@H](O)[C@@H](CO)O2)cc1Cl` [CHLORODEOXYURIDINE] displayed an EC50 in the assay on Human alphaherpesvirus 1 of 15 µM.
For `[N-]=[N+]=NC1C(Cl)C(=O)NC(=O)N1[C@H]1C[C@H](O)[C@@H](CO)O1` (some centres undefined), the IC50 in the assay with CCRF-CEM [1] is 54.6 µM; with CCRF-CEM [2], above 327 µM. The GI50 with SK-MEL-5 [7] is 12.3 µM; in the assay on NCI-H522, 5.37 µM; with M19-MEL [8], 52.4 µM; in the assay on SF-268, 93.3 µM; in the assay on Malme-3M [9], 13.1 µM; in the assay with CCRF-CEM [6] it was 26.3 µM. In the assay on RPMI-8226, this compound came in with a GI50 of 72.4 µM. Also, the EC50 came to 1.6 µM in the assay on Human alphaherpesvirus 2, 9.8 µM in the assay on Human gammaherpesvirus 4, 28.9 µM in the assay on Human betaherpesvirus 5 and 0.33 µM with Human alphaherpesvirus 1.
For the compound `Nc1nc2c(ncn2COC(CO)CO)c(=O)[nH]1` [GANCICLOVIR], the IC50 with CCRF-CEM [2] is above 390 µM. Further, in the assay on Human betaherpesvirus 5, the half-maximal effective concentration (EC50) amounted to 0.78 µM.
As for `CC1(Br)C(=O)NC(=O)N([C@H]2C[C@H](O)[C@@H](CO)O2)C1N=[N+]=[N-]` (some centres undefined), the results for the IC50 in the assay on CCRF-CEM [1] and in the assay on CCRF-CEM [2] were 143 µM and 73 µM, respectively. For the same compound, the EC50 in the assay with Human alphaherpesvirus 3 was 104 µM; with Human alphaherpesvirus 2, above 274 µM; with Human gammaherpesvirus 4, 16 µM; with Human betaherpesvirus 5 it was 15 µM; in the assay on Human alphaherpesvirus 1, above 274 µM. Besides, in the assay on Tumor Cell line, the result was inactive.
